From patent US20070293443A1, “Composition for Accelerating Calcium Absorption” (Good Shusei Co. Ltd, priority 2004, published 2007)
Entries after “also recorded” stand apart in the source; their conditions may differ.

Assays:
[1] = tested on: dietary calcium absorption; assay: Dietary calcium absorption accelerating effect, blood calcium level after oral calcium carbonate with test substance (Example 1); format: in vivo; details: male ICR mice, oral 5 mmol/kg calcium carbonate alone or with test substance (1.25-10.0 mmol/kg), up to 4 hours after administration
Source text: For the experiment, 11-weeks old male ICR mice were used after overnight fasting. During the test period, the mice were given deionized water only. […] The doses of L-arabonic acid administered in combination were 1.25 mmol/kg (Group II), 2.5 mmol/kg (Group III), 5.0 mmol/kg (Group IV), and 10.0 mmol/kg (Group V), and the doses of D-gluconic acid were 2.5 mmol/kg (Group VI), 5.0 mmol/kg (Group VII), and 10.0 mmol/kg (Group VIII). […] The blood calcium level was quantified by a chelate colorimetric method (ortho-cresolphthalein complexone (OCPC) method). The obtained data were analyzed by a paired t-test, and a risk ratio of 5% or less was considered as significant difference.

[2] = Kinetics of L-arabonic acid in the digestive tract of rat (Example 3); format: in vivo
Experimental: For the experiment, 7 to 11-weeks old male Wistar rats were used after overnight fasting. After orally administering 5 mmol/kg of L-arabonic acid, the animals were entered into a metabolic cage, and were sacrificed after 2 hours, after 6 hours, and after 24 hours, to remove the digestive tracts. The contents in each site of the digestive tract were recovered respectively, and the amount of unaltered L-arabonic acid was quantified by the HPLC method. The entire amounts of urine and feces up to the respective time points were recovered, and the amounts of L-aranobic acid were quantified in the same manner. During the test period, the animals were given deionized water only.

[3] = tested on: mice; assay: Single oral administration safety test, LD50; format: in vivo
Source text: As a result of a single oral test using mice, it was confirmed that the LD50 value of L-arabonic acid was about 10 g/kg, and thus L-arabonic acid was a material having high safety.
While it was discovered in Example 5 that the calcium moiety of calcium L-arabonate used in the invention was extremely readily-absorbable, it was shown in Example 6 that the L-arabonic acid moiety was extremely poorly absorbed in the digestive tract.

[4] = tested on: dietary calcium absorption; assay: Dietary calcium absorption accelerating effect of sodium L-arabonate in mice fed calcium-deficient diet (Example 2); format: in vivo; details: for Ca level in blood, 0 min: 0 min (before administration); for Ca level in blood, 0 min / Ca level in blood, 2 hrs / Ca level in blood, 4 hrs: oral 5 mmol/kg calcium carbonate alone (Group I) or with 5 mmol/kg sodium L-arabonate (Group II), n = 4; for Ca level in blood, 2 hrs: 2 hrs after administration; for Ca level in blood, 4 hrs: 4 hrs after administration; for change in blood calcium level: up to 4 hours after oral administration, mice on calcium-deficient diet
Experimental: Eight-week old male ICR mice were used and fed calcium-deficient diet and deionized water for one week. The mice were fasted overnight before the test, and were given deionized water only during the test period. […] The obtained data were analyzed by a paired t-test, and a risk ratio of 5% or less was considered as significant difference.

[5] = Blood calcium level after administration of calcium L-arabonate (Example 5); format: in vivo; details: male ICR mice, oral calcium L-arabonate 1.25, 2.5, 5.0 mmol/kg or calcium carbonate 5 mmol/kg, up to 4 hours
Experimental: For the experiment, 11-weeks old male ICR mice were used after overnight fasting. During the test period, the mice were given deionized water only. The mice were divided into four groups (Groups I to IV, 5 animals in each group), and the test substance was orally administered as a solution in deionized water. […] The blood calcium level was quantified by a chelating calorimetric method (ortho-cresolphthalein complexone (OCPC) method). The obtained data were analyzed by a paired t-test, and a risk ratio of 5% or less was considered as significant difference.

[6] = tested on: experimental osteoporosis induced by calcium-deficient diet; assay: Experimental osteoporosis induced by calcium-deficient diet (Example 7); format: in vivo, mice; details: dose 2.5 mmol/kg oral daily
Experimental: (§1) Six-week old female ICR mice were divided into five groups (Groups I to V, 10 animals in each group), and fed calcium-deficient feed (calcium carbonate-free AIN 93M, Oriental Yeast Co., Ltd.) for 4 weeks to induce osteoporosis condition. Calcium L-arabonate was dissolved in water and orally administered daily in a dose of 1.25 mmol/kg (Group II) or 2.5 mmol/kg (Group III). The control group for pathological condition (Group I) was administered with water in the same manner. As a comparative group, a group administered with calcium D-gluconate (dose 2.5 mmol/kg (Group IV)) was provided. A normal control group (Group V) was separately provided and was given the normal feed (AIN 93M, Oriental Yeast Co., Ltd.). After administering the test substance on the second week and fourth week of initiation of the test, the animals were transferred to a metabolic cage, and feces were collected for 24 hours. The amount of calcium and phosphorus excreted in the feces were measured, and the absorption rates of ingested calcium and phosphorous in the digestive tract were determined. After completion of the test period, the animals of the respective groups were sacrificed to remove both femurs and tibiae. The femurs and tibiae were removed muscles etc., then immersed in 70% ethanol overnight, and dried at 60° C. for 24 hours to be used as samples for analysis. The measurement items were dry weight, ash content, calcium content, and phosphorus content. The ash content was measured by an ashing method at 550° C. for 18 hours, the calcium content was measured by an OCPC method (Calcium C-Test Wako, Wako Pure Chemical Industries, Ltd.), and the phosphorus content was measured by a p-methylaminophenol reduction method (Phospho C-Test Wako, Wako Pure Chemical Industries, Ltd.). The obtained data were analyzed by ANOVA and the Dunnett's method, and a risk ratio of 5% or less was considered as significant difference.

[7] = tested on: experimental osteoporosis induced by combination of ovary excision and calcium-deficient diet; assay: Experimental osteoporosis due to combination of ovary excision and calcium-deficient diet (Example 8); format: in vivo, mice; details: dose 2.5 mmol/kg oral daily
Experimental: as §1
Six-weeks old female ICR mice excised their ovaries were divided into 5 groups (Groups I to V, 10 animals in each group), and fed calcium-deficient feed (calcium carbonate-free AIN 93M, Oriental Yeast Co., Ltd.) for 4 weeks to induce osteoporosis condition. Calcium L-arabonate was dissolved in water, and orally administered daily in a dose of 1.25 mmol/kg (Group II) or 2.5 mmol/kg (Group III). The control group for pathological condition (Group I) was administered with water in the same manner. As a comparative group, a group administered with calcium D-gluconate (dose 2.5 mmol/kg (Group IV)) was provided. Also, a group excised ovaries but given with normal feed (AIN 93M, Oriental Yeast Co., Ltd.) (Group V) was separately provided. The measurement of the absorption rate of calcium in the digestive tract, and the analysis of femur and tibia were performed in the same manner as in Example 7.

In the case of `O=C(O)[C@H](O)[C@@H](O)[C@H](O)[C@H](O)CO` [D-gluconic acid, reference compound], the “change in blood calcium level” value [1] is reported as “not observed to have significant increases in the blood calcium level”.
With `O=C(O)[C@H](O)[C@@H](O)[C@@H](O)CO` [L-arabonic acid] the “change in blood calcium level” value [1] was “dose-dependent and significant increases in the blood calcium level; also recorded: calcium absorption was accelerated by L-arabonic acid, and the effect was rapidly acting and continuous”, the “share of the total amount of administration remained in the cecum and colon” value ([2]; after 24 hours, oral 5 mmol/kg) was “About 30%” and the “absorption in the small intestine” value ([2]; from 2 to 6 hours after oral administration) was “hardly absorbed in the small intestine”. For the same compound, the “Residual ratio after administration, Cecum, After 2 hrs” value ([2]; oral 5 mmol/kg L-arabonic acid, cecum, 2 hrs) was 47.7 ± 3.39%, the “Residual ratio after administration, Cecum, After 6 hrs” value ([2]; oral 5 mmol/kg L-arabonic acid, cecum, 6 hrs) was 60.6 ± 3.26% and the “Residual ratio after administration, Cecum, After 24 hrs” value ([2]; oral 5 mmol/kg L-arabonic acid, cecum, 24 hrs) was 25.9 ± 7.81%. The “Residual ratio after administration, Colon, After 2 hrs” value ([2]; oral 5 mmol/kg L-arabonic acid, colon, 2 hrs) was 0.1 ± 0.14%, the “Residual ratio after administration, Colon, After 6 hrs” value ([2]; oral 5 mmol/kg L-arabonic acid, colon, 6 hrs) was 7.4 ± 2.35% and the “Residual ratio after administration, Colon, After 24 hrs” value ([2]; oral 5 mmol/kg L-arabonic acid, colon, 24 hrs) was 1.9 ± 0.37%. The “Residual ratio after administration, Small intestine, After 2 hrs” value ([2]; oral 5 mmol/kg L-arabonic acid, small intestine, 2 hrs) was 23.0 ± 3.71%, the “Residual ratio after administration, Small intestine, After 6 hrs” value ([2]; oral 5 mmol/kg L-arabonic acid, small intestine, 6 hrs) was 3.3 ± 2.50% and the “Residual ratio after administration, Small intestine, After 24 hrs” value ([2]; oral 5 mmol/kg L-arabonic acid, small intestine, 24 hrs) was 0.8 ± 0.20%. For the same compound, the “Residual ratio after administration, Stomach, After 2 hrs” value ([2]; oral 5 mmol/kg L-arabonic acid, stomach, 2 hrs) was 0%, the “Residual ratio after administration, Stomach, After 6 hrs” value ([2]; oral 5 mmol/kg L-arabonic acid, stomach, 6 hrs) was 0% and the “Residual ratio after administration, Stomach, After 24 hrs” value ([2]; oral 5 mmol/kg L-arabonic acid, stomach, 24 hrs) was 0%. The “L-arabonic acid in excreted feces” value ([2]; oral 5 mmol/kg, feces up to 24 hours) was “detected from the excreted feces”, the “unaltered L-arabonic acid in urine” value ([2]; oral 5 mmol/kg, urine up to 24 hours) was “detected from the urine, even in small amount” and the “level of L-arabonic acid in the blood” value ([2]; throughout the test period, oral 5 mmol/kg) was “below the detection limit”. For the same compound, the LD50 [3] was “about 10 g/kg”.
For `O=C([O-])[O-].[Ca+2]` [calcium carbonate, reference compound], the “change in blood calcium level” value [1] was “did not show any increase in the blood calcium level”, the “Ca level in blood, 0 min” value [4] was 4.67 ± 0.297 mg/dL and the “Ca level in blood, 2 hrs” value [4] was 4.58 ± 0.143 mg/dL. The “Ca level in blood, 4 hrs” value [4] was 4.82 ± 0.189 mg/dL, the “change in blood calcium level” value [4] was “did not show any increase in the blood calcium level” and the “change in blood calcium level” value [5] was “did not show any increase in the blood calcium level”.
In the case of `O=C([O-])[C@H](O)[C@@H](O)[C@@H](O)CO.[Na+]` [sodium L-arabonate], the “Ca level in blood, 0 min” value [4] is reported as 4.30 ± 0.121 mg/dL, the “Ca level in blood, 2 hrs” value [4] is reported as 5.59 ± 0.232 mg/dL and the “Ca level in blood, 4 hrs” value [4] is reported as 5.62 ± 0.212 mg/dL. For the same compound, the “change in blood calcium level” value [4] was “significant increase in the blood calcium level”.
With “calcium D-gluconate [reference compound]” the “absorption rate of calcium in the digestive tract, fourth week” value ([6]; fourth week, calcium-deficient diet mice) was 59.8%, the “absorption rate of calcium in the digestive tract, second week” value ([6]; second week, calcium-deficient diet mice) was 74.2% and the “Femur Ash content” value ([6]; femur, 4 weeks) was 25 ± 1.3 mg. For the same compound, the “Femur Ca content” value ([6]; femur, 4 weeks) was 8.7 ± 0.42 mg, the “Femur P content” value ([6]; femur, 4 weeks) was 4.7 ± 0.21 mg and the “Femur Weight” value ([6]; femur, 4 weeks) was 46 ± 2.1 mg. The “Tibia Ash content” value ([6]; tibia, 4 weeks) was 23 ± 1.2 mg, the “Tibia Ca content” value ([6]; tibia, 4 weeks) was 8.3 ± 0.34 mg and the “Tibia P content” value ([6]; tibia, 4 weeks) was 4.3 ± 0.16 mg. For the same compound, the “Tibia Weight” value ([6]; tibia, 4 weeks) was 44 ± 1.1 mg, the “absorption rate of calcium in the digestive tract, fourth week” value ([7]; fourth week, ovary-excised mice on calcium-deficient diet) was 45.1% and the “absorption rate of calcium in the digestive tract, second week” value ([7]; second week, ovary-excised mice on calcium-deficient diet) was 61.1%. The “Femur Ash content” value ([7]; femur, 4 weeks) was 27 ± 0.4 mg, the “Femur Ca content” value ([7]; femur, 4 weeks) was 9.4 ± 0.18 mg and the “Femur P content” value ([7]; femur, 4 weeks) was 4.8 ± 0.14 mg. The “Femur Weight” value ([7]; femur, 4 weeks) was 50 ± 1.2 mg, the “Tibia Ash content” value ([7]; tibia, 4 weeks) was 24 ± 0.5 mg and the “Tibia Ca content” value ([7]; tibia, 4 weeks) was 8.6 ± 0.21 mg. For the same compound, the “Tibia P content” value ([7]; tibia, 4 weeks) was 4.4 ± 0.08 mg and the “Tibia Weight” value ([7]; tibia, 4 weeks) was 46 ± 1.0 mg.
